Results reported in paper PMC10066322 (Scientific Reports, 2023).

Molecular target: T1, PARN (Homo sapiens, UniProt O95453)
T1 construct: expression of the C-terminal truncated protein (1-430 aa of PARN) was soluble; His tag (from the pCold I vector); made in house; host or cells: E. coli Rosetta 2 DE
T1 sequence (O95453 1-430): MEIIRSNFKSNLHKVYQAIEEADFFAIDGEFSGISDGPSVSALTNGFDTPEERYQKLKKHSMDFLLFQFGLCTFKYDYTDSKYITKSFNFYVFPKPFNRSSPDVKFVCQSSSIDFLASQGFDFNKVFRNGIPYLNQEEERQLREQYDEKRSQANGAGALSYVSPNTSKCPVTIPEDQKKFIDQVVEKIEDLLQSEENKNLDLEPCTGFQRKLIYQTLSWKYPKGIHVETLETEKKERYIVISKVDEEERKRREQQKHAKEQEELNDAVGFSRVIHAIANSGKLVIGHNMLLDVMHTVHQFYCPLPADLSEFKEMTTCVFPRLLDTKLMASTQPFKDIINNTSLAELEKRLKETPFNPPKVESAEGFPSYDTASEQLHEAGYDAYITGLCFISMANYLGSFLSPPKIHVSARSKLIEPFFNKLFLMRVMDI
Assay: High-throughput screening fluorescence assay with 8-point IC50 curves
Format: biochemical
Settings: high-throughput screening hits; 8 points 1:3 dilution, top 100 µM
Method: To identify PARN inhibitors in a high-throughput manner, 24,000 compounds from the Enamine kinase library were tested in a HTS utilizing the fluorescence assay (Fig. 3a).
2 µL of protein (100 nM final concentration) (stock protein was diluted in 1× lysis buffer (HEPES KOH, pH 7.4, 30 mM, KOAc 100 mM, and Mg(OAc)2 2 mM) was added to wells using offline Multidrop Combi nL. The reaction was pre-incubated with 12.5 nL of Sygnature library (Enamine kinase library (HBL-24) (31.25 μM) for 15 min before 2 µL of RNA (10 µM) was added (DMSO was added to control wells using Echo 655). The reaction was incubated at 22 °C for 20 min in Cytomat automatic incubator. After the incubation, the reaction was quenched by adding 4 µL of quencher solution (30 µM of 3′-BHQ labeled quench DNA in 1% SDS) using Multidrop Combi nL. The quenched reaction was incubated at room temperature for 10 min and fluorescence was measured using PHERAstar FSX (λ485/520). For the counter screen, no protein was added to the reaction.
Curves were fitted within Genedata using SmartFit algorithm.

Compound	IC50
O=C(Nc1ncnc2c1ncn2[C@@H]1O[C@H](CO)C[C@H](F)[C@H]1O)c1ccccc1 [TH18]	0.2 µM

Molecular target: T2, PARN1-430 (Homo sapiens, UniProt O95453)
T2 construct: expression of the C-terminal truncated protein (1-430 aa of PARN) was soluble; His tag (from the pCold I vector); made in house; host or cells: E. coli Rosetta 2 DE
T2 sequence (O95453 1-430): T1 sequence (O95453 1-430)
Assay: Inhibition fluorescence assay (FAM-RNA / BHQ quencher deadenylase assay)
Format: biochemical
Settings: 2.5 mM AMP, PARN1-430 73 nM
Method: To easily screen compounds for inhibition of PARN activity, we developed an assay in which fluorescence was used as the readout for monitoring PARN1-430’s activity (Fig. 3a). This assay was modeled on a similar assay developed for Caf1/CNOT7 deadenylase. In this assay, PARN1-430 was incubated with a 5′-fluorescently labeled oligoadenylated RNA. In the absence of deadenylation, this substrate RNA can effectively hybridize to a complementary DNA oligonucleotide with a quencher on its 3′ end leading to a loss of fluorescence (Fig. 3a). When the RNA substrate is deadenylated, the quenching oligonucleotide is no longer able to stably hybridize leading to an increase in fluorescence in the reaction.
Figure 3 Developing a fluorescence assay for PARN inhibition. (a) Cartoon depicting the inhibition fluorescence assay. Schematic diagram of the fluorescence-based deadenylase assay. The assay is based on a 5′ FAM-labelled RNA oligonucleotide substrate. After incubation of the substrate in the presence of PARN1-430, the reaction is stopped and a 3′ BHQ-labelled DNA oligonucleotide probe complementary to the RNA substrate is added. The fluorescence of intact substrate is quenched upon probe hybridization because of the proximity of the BHQ […]. In contrast, the BHQ-labelled probe cannot hybridize to the FAM-labelled reaction product allowing detection of FAM fluorescence. […] 2-way ANOVA, multiple comparisons test, average ± SD, n = 3 replicates. *P < 0.05, **P < 0.005, ***P < 0.001, ****P < 0.0001, n.s. was not indicated. […] Dotted-line represents RNA and RNA + Quencher data. One-way ANOVA, multiple comparisons test, average ± SD, n ≥ 3 replicates. *P < 0.05, **P < 0.005, ***P < 0.001, ****P < 0.0001, n.s. was not indicated. (d) PARN1-430 and PARNmut enzymatic activity measured at different time points. […] Dotted-line represents RNA and RNA + Quencher data. 2-way ANOVA, multiple comparisons test, average ± SD, n = 3 replicates. *P < 0.05, **P < 0.005, ***P < 0.001, ****P < 0.0001, n.s. was not indicated.
Quenched reaction was incubated at room temperature for 10–60 min and fluorescence was measured using Fluorescein wavelength measurement.

Compound	inhibition of PARN1-430, fluorescence assay
Nc1ncnc2c1ncn2[C@@H]1O[C@H](COP(=O)(O)O)[C@@H](O)[C@H]1O [AMP, adenosine monophosphate]	effectively inhibited

Same assay, conditions: computational docking compounds; fluorescence assay and gels; PARN1-430 pretreated with drug 10 min

Compound	PARN inhibitor in vitro
Nc1nc(Cl)nc2c1ncn2[C@@H]1O[C@H](CO)[C@@H](O)[C@@H]1F [Clofarabine]	No
Nc1nc(Cl)nc2c1ncn2[C@H]1C[C@H](O)[C@@H](CO)O1 [Cladribine]	Yes
CCn1nc(C2CCN(C(=O)CCO)CC2)nc1-c1cnc(N)c(-c2nnc(C(C)(C)C)o2)n1 [AZD8835]	No
CNC(=O)c1cnn(-c2nc(N)c3ncn([C@@H]4O[C@H](CO)[C@@H](O)[C@H]4O)c3n2)c1 [Regadenoson]	Yes
Nc1ncnc2c1ncn2[C@H]1O[C@@H](CO)[C@H](O)[C@@H]1O [L-adenosine]	No
NC(=O)c1ncn([C@@H]2O[C@H](CO)[C@@H](O)[C@H]2O)c1N [AICAR]	No
COc1nc(N)c2ncn([C@@H]3O[C@H](CO)[C@@H](O)[C@H]3O)c2n1 [Spongosine]	Yes
Nc1ncnc2c1ccn2[C@@H]1O[C@H](CO)[C@@H](O)[C@H]1O [Tubercidine]	Yes
Nc1cccc(-c2cc3c(Oc4cccc(O)c4)ncnc3[nH]2)c1 [TWS119]	No
Nc1ncnc2c1c(Br)cn2[C@@H]1O[C@H](CO)[C@@H](O)[C@H]1O [5-bromotubercidine]	No
Nc1ncnc2c1ncn2[C@@H]1O[C@H](CO)[C@@H](O)[C@@H]1O [Vidarabine]	No
Nc1ncnc2c1c(I)cn2C1OC(CO)C(O)C1O (stereo not shown) [5-ITU, 5-Iodotubercidin]	No

Test system: PARN activity in Hela cells
Assay: miR-21-5p levels in Hela cells by northern blotting (PARN inhibition in cells)
Format: cell-based, human
Settings: 10 µM, 2 days
Method: 48 h after transfection/drug treatment, cells were collected for either RNA or protein analysis.
Total RNA was extracted from cell lysates using TriZol as per manufacturer’s protocol and DNAse treated. After quantification on Nanodrop, total RNA was separated on an acrylamide 7 M Urea gel. RNA was transferred to a nylon membrane (Nytran SPC, GE Healthcare) using semiwet transfer. After UV/EDC crosslinking, the blot was pre-hybridized and hybridized in PerfectHyb Plus Hybridization Buffer (Sigma Aldrich) at 42 °C. Northern probes have been previously described[11],[48]. After hybridization and washing in 2 × SSC 0.1% SDS wash buffer, blots were exposed to a cassette and imaged on a Typhoon FLA 9500 Phosphoimager. Band intensities were quantified using ImageJ and normalized to the U1 levels under each condition.

Compound	PARN inhibitor in cells
O=C(Nc1ncnc2c1ncn2[C@@H]1O[C@H](CO)C[C@H](F)[C@H]1O)c1ccccc1 [TH18]	No

Molecular target: T1, PARN
Assay: not given
Settings: cited from earlier work

Compound	Ki	PARN inhibitor in vitro	concentration at which PARN1-430 is inhibited
NC[C@H]1O[C@H](O[C@H]2[C@H](O)[C@@H](O[C@H]3O[C@H](CO)[C@@H](O)[C@H](N)[C@H]3O)[C@H](N)C[C@@H]2N)[C@H](N)[C@@H](O)[C@@H]1O [Kanamycin B]	7.3 ± 0.4 µM	Yes	
O=c1ccn([C@@H]2O[C@H](CO)[C@@H](O)[C@H](F)[C@H]2O)c(=O)[nH]1 [U1, 1-(3′-deoxy-3′-fluoro-β-d-glucopyranosyl) uracil]	19 ± 5 µM	Yes	
O=C(Nc1ncnc2c1ncn2[C@@H]1O[C@H](CO)C[C@H](F)[C@H]1O)c1ccccc1 [A2, 9-(3′,4′, dideoxy-3′-fluoro-β-d-glucopyranosyl)-N6-benzoyl adenine]	510 ± 52 µM	Yes	
NC[C@@H]1O[C@H](O[C@H]2[C@@H](O)[C@H](O[C@@H]3[C@@H](O)[C@H](N)C[C@H](N)[C@H]3O[C@H]3O[C@H](CN)[C@@H](O)[C@H](O)[C@H]3N)O[C@@H]2CO)[C@H](N)[C@@H](O)[C@@H]1O [Neomycin B]	0.4 ± 0.1 µM	Yes	
O=c1[nH]c(=O)n([C@@H]2O[C@H](CO)[C@@H](O)[C@H](F)[C@H]2O)cc1F [FU1, 1-(3′-deoxy-3′-fluoro-β-d-glucopyranosyl) 5-fluorouracil]	98 ± 12 µM	Yes	
NC[C@@H]1O[C@H](O[C@H]2[C@@H](O)[C@H](O[C@@H]3[C@@H](O)[C@H](N)C[C@H](N)[C@H]3O[C@H]3O[C@H](CO)[C@@H](O)C[C@H]3N)O[C@@H]2CO)[C@H](N)[C@@H](O)[C@@H]1O[C@H]1O[C@H](CO)[C@@H](O)[C@H](O)[C@@H]1O [Lividomycin]	18.7 ± 2.8 µM	Yes	
Cc1cn([C@@H]2O[C@H](CO)[C@@H](O)[C@H](F)[C@H]2O)c(=O)[nH]c1=O [T1, 1-(3′-deoxy-3′-fluoro-β-d-glucopyranosyl) thymine]	135 ± 18 µM	Yes	
OC[C@H]1OC(O)[C@H](O)[C@@H](F)[C@@H]1O (stereo partly shown) [B6]		Yes	
NC[C@@H]1O[C@H](O[C@H]2[C@@H](O)[C@H](O[C@@H]3[C@@H](O)[C@H](N)C[C@H](N)[C@H]3O[C@H]3O[C@H](CO)[C@@H](O)[C@H](O)[C@H]3N)O[C@@H]2CO)[C@H](N)[C@@H](O)[C@@H]1O [Paromomycin]	17.3 ± 3.5 µM	Yes	
Kanamycin A		Yes	
Nc1ncnc2c1ncn2[C@@H]1O[C@H](COP(=O)(O)O)[C@@H](O)[C@H]1O [AMP, adenosine monophosphate]			> 1 mM
O=C(Nc1ncnc2c1ncn2[C@@H]1O[C@H](CO)C[C@H](F)[C@H]1O)c1ccccc1 [A6, 1-(3′,4′, dideoxy-3′-fluoro-β-d-glucopyranosyl)-N4-benzoyl adenine]	210 ± 45 µM	Yes	
NC[C@H]1O[C@H](O[C@H]2[C@H](O)[C@@H](O[C@H]3O[C@H](CO)[C@@H](O)[C@H](N)[C@H]3O)[C@H](N)C[C@@H]2N)[C@H](N)C[C@@H]1O [Tobramycin]	7.1 ± 0.2 µM	Yes	

Molecular target: T2, PARN1-430
Assay: Gel assay of poly(A) RNA shortening by PARN1-430
Format: biochemical
Settings: not given
Method: PARN1-430 was incubated with a fluorescently labeled RNA with a CCUUUCC sequence followed by a 9 nucleotide-long poly(A) tail and the reaction product was visualized on denaturing acrylamide gels. We observed that PARN removed the 3′ oligo(A) tail from the RNA substrate (Fig. 2c and d). […] Moreover, we observed that PARN is inhibited when treated with adenosine monophosphate (AMP), as has been reported previously.
1 µL of protein (73 nM as final concentration) (stock protein is diluted in 1× lysis buffer (HEPES KOH, pH 7.4, 30 mM, KOAc 100 mM, and Mg(Oac)2 2 mM) was added to 4 µL of 2.5× reaction buffer (Tris–HCl pH 7.4, 10 mM, KCl 50 mM, MgCl2 5 mM). If drug was added, reaction was pre-incubated with drugs for 10 min before 5 µL of RNA (5 µM as final concentration) was added. The reaction was incubated at 37 °C for 20 min. After the incubation, the reaction was either diluted with 2× loading buffer and heated to 95 °C for 5 min for gel or quenched by adding 10 µL of quencher solution (30 µM of 3′-BHQ labeled quench DNA in 1% SDS). Quenched reaction was incubated at room temperature for 10–60 min and fluorescence was measured using Fluorescein wavelength measurement.
15% TBE-Urea gel (Thermo Fisher Scientific) was prerun at 20W for 30 min. RNAs from the reaction was loaded into 15% TBE gels and run at 300 V for 35 min. The gel was visualized using iBright (Invitrogen FL1500).

Compound	inhibitory effect on PARN1-430, gel assay
Nc1ncnc2c1ncn2[C@@H]1O[C@H](COP(=O)(O)O)[C@@H](O)[C@H]1O [AMP, adenosine monophosphate]	inhibited

Same assay, conditions: 20 μM compound

Compound	inhibition of PARN on gels
O=C(Nc1ncnc2c1ncn2[C@@H]1O[C@H](CO)C[C@H](F)[C@H]1O)c1ccccc1 [TH18]	could inhibit PARN at 20 μM, except for TH18
